The molecules below were run on KRAS G12V dependent lung adenocarcinoma cell line, NCI-H441 (assay: Cellular pERK (Thr202/Tyr204) FRET/HTRF assay). Conditions: Homo sapiens, NCI-H441, cellular pERK (Thr202/Tyr204) HTRF, NCI-H441 cells.
Type: cell-based
How it was run: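 NCI-H441 cells (KRAS G12V) were seeded and grown overnight at 37 °C, 5% CO2, then treated with compound in DMSO for 1 hr. Lysates were probed with a Eu3+-cryptate/d2 antibody sandwich against pERK1/2 Thr202/Tyr204 and read by HTRF at 665 nm; IC50 from curve fitting.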
In the case of `[2H]C([2H])(F)Oc1c(F)cc(F)c2cccc(-c3ncc4c(N5CCOC[C@H]6[C@H](F)[C@H]65)nc(OC([2H])([2H])[C@@]56CCCN5C[C@H](F)C6)nc4c3F)c12` [Example 151, (1S,7S,8S)-2-(7-(5,7-difluoro-8-(fluoromethoxy-d2)naphthalen-1-yl)-8-fluoro-2-(((2R,7aS)-2-fluorotetrahydro-1H-pyrrolizin-7a(5H)-yl)methoxy-d2)pyrido[4,3-d]pyrimidin-4-yl)-8-fluoro-5-oxa-2-azabicyclo[5.1.0]octane], the IC50 is reported as under 50 nM.
Molecule `[2H]C([2H])(Oc1nc(N2CCOC[C@H]3[C@H](F)[C@H]32)c2cnc(-c3cc(N)cc4ccc(F)c(C#C)c34)c(F)c2n1)[C@@]12CCCN1C[C@@H](CC#N)C2` (single isomer, unassigned) [Example 314] has an IC50 of under 50 nM.
With `C#Cc1c(F)ccc2cc(N)cc(-c3ncc4c(N5CCOC[C@H]6[C@H](F)[C@H]65)nc(OC[C@@]56CCCN5C[C@@]5(CC5(F)F)C6)nc4c3F)c12` (single isomer, unassigned) [Example 211] the IC50 was under 50 nM.
`[2H]C1([2H])CC2(CC2)[C@]2(C([2H])([2H])Oc3nc(N4CCOC[C@H]5[C@H](F)[C@H]54)c4cnc(-c5cc(N)cc6ccc(F)c(C#C)c56)c(F)c4n3)C[C@]([2H])(F)CN12` (single isomer, unassigned) [Example 204] gave an IC50 of under 50 nM.
Molecule `[2H]c1cc2cc(N)cc(-c3ncc4c(N5CCOC[C@H]6[C@H](F)[C@H]65)nc(OC([2H])([2H])[C@@]56CCCN5C[C@H](F)C6)nc4c3F)c2c(C#C)c1F` [Example 256, 5-ethynyl-6-fluoro-4-(8-fluoro-4-((1S,7S,8S)-8-fluoro-5-oxa-2-azabicyclo[5.1.0]octan-2-yl)-2-(((2R,7aS)-2-fluorotetrahydro-1H-pyrrolizin-7a(5H)-yl)methoxy-d2)pyrido[4,3-d]pyrimidin-7-yl)naphthalen-7-d-2-amine] has an IC50 of under 50 nM.
`C#Cc1c(F)ccc2cc(N)cc(-c3ncc4c(N5CCOC[C@H]6[C@H](F)[C@H]65)nc(OC[C@@]56CCCN5C/C(=C\F)C6)nc4c3C)c12` [Example 427, 5-ethynyl-6-fluoro-4-(4-((1S,7S,8S)-8-fluoro-5-oxa-2-azabicyclo[5.1.0]octan-2-yl)-2-(((S,Z)-2-(fluoromethylene)tetrahydro-1H-pyrrolizin-7a(5H)-yl)methoxy)-8-methylpyrido[4,3-d]pyrimidin-7-yl)naphthalen-2-amine] gave an IC50 of under 50 nM.
With `[2H]C([2H])(Oc1nc(N2CCOC[C@H]3[C@H](F)[C@H]32)c2cnc(-c3cc(N)cc4c(F)cc(F)c(C#C)c34)c(F)c2n1)[C@@]12CCCN1C[C@H](F)C2` [Example 108, 5-ethynyl-6,8-difluoro-4-(8-fluoro-4-((1S,7S,8S)-8-fluoro-5-oxa-2-azabicyclo[5.1.0]octan-2-yl)-2-(((2R,7aS)-2-fluorotetrahydro-1H-pyrrolizin-7a(5H)-yl)methoxy-d2)pyrido[4,3-d]pyrimidin-7-yl)naphthalen-2-amine] the IC50 was under 50 nM.
`[2H]C([2H])(Oc1nc(N2CCCC[C@H]3[C@H](F)[C@H]32)c2cnc(-c3cncc4ccc(F)c(OC)c34)c(F)c2n1)[C@@]12CCCN1C[C@H](F)C2` [Example 98, 8-Fluoro-7-(6-fluoro-5-methoxyisoquinolin-4-yl)-4-((1S,7R,8S)-8-fluoro-2-azabicyclo[5.1.0]octan-2-yl)-2-(((2R,7aS)-2-fluorotetrahydro-1H-pyrrolizin-7a(5H)-yl)methoxy-d2)pyrido[4,3-d]pyrimidine] gave an IC50 of under 50 nM.
In the case of `[2H]C([2H])(Oc1nc(N2CCC=C[C@H]3[C@H](F)[C@H]32)c2cnc(-c3cccc4ccc(F)c(C#C)c34)c(F)c2n1)[C@@]12CCCN1C[C@H](F)C2` [Example 147, 7-(8-Ethynyl-7-fluoronaphthalen-1-yl)-8-fluoro-4-((1S,7R,8S)-8-fluoro-2-azabicyclo[5.1.0]oct-5-en-2-yl)-2-(((2R,7aS)-2-fluorotetrahydro-1H-pyrrolizin-7a(5H)-yl)methoxy-d2)pyrido[4,3-d]pyrimidine], the IC50 is reported as under 50 nM.
With `[2H]C([2H])(Oc1nc(N2CCOC[C@H]3[C@H](F)[C@H]32)c2c(O)nc(-c3cc(N)cc4ccc(F)c(C#C)c34)c(F)c2n1)[C@@]12CCCN1C[C@H](F)C2` [Example 401, 7-(3-amino-8-ethynyl-7-fluoronaphthalen-1-yl)-8-fluoro-4-((1S,7S,8S)-8-fluoro-5-oxa-2-azabicyclo[5.1.0]octan-2-yl)-2-(((2R,7aS)-2-fluorotetrahydro-1H-pyrrolizin-7a(5H)-yl)methoxy-d2)pyrido[4,3-d]pyrimidin-5-ol] the IC50 was 500 to 10000 nM.
In the case of `[2H]C([2H])(Oc1nc(N2CCOC[C@H]3[C@H](F)[C@H]32)c2cnc(-c3cc(N)cc4ccc(F)c(C#C)c34)c(F)c2n1)[C@@]12CCCN1[C@@H](C)[C@H](F)C2` [Example 334, 5-ethynyl-6-fluoro-4-(8-fluoro-2-(((2R,3S,7aS)-2-fluoro-3-methyltetrahydro-1H-pyrrolizin-7a(5H)-yl)methoxy-d2)-4-((1S,7S,8S)-8-fluoro-5-oxa-2-azabicyclo[5.1.0]octan-2-yl)pyrido[4,3-d]pyrimidin-7-yl)naphthalen-2-amine], the IC50 is reported as under 50 nM.
`C=C1CN2CCC[C@@]2(COc2nc(N3CCCC[C@@H]4[C@@H](F)[C@@H]43)c3cnc(-c4cc(N)cc(Cl)c4C(F)(F)F)c(F)c3n2)C1` [Example 368, 3-chloro-5-(8-fluoro-4-((1R,7S,8R)-8-fluoro-2-azabicyclo[5.1.0]octan-2-yl)-2-(((S)-2-methylenetetrahydro-1H-pyrrolizin-7a(5H)-yl)methoxy)pyrido[4,3-d]pyrimidin-7-yl)-4-(trifluoromethyl)aniline] showed an IC50 of 500 to 10000 nM.
`C=C1CN2CCC[C@@]2(COc2nc(N3CCCC[C@@H]4[C@@H](F)[C@@H]43)c3cnc(-c4cc(N)c(F)c(C)c4C(F)(F)F)c(F)c3n2)C1` [Example 393, 2-fluoro-5-(8-fluoro-4-((1R,7S,8R)-8-fluoro-2-azabicyclo[5.1.0]octan-2-yl)-2-(((S)-2-methylenetetrahydro-1H-pyrrolizin-7a(5H)-yl)methoxy)pyrido[4,3-d]pyrimidin-7-yl)-3-methyl-4-(trifluoromethyl)aniline] showed an IC50 of 500 to 10000 nM.
Work on `C#Cc1c(F)ccc2cccc(-c3ncc4c(N5CCOC[C@H]6[C@H](F)[C@H]65)nc(OC[C@@]56CCCN5C/C(=C\F)C6)nc4c3F)c12` [Example 130, (1S,7S,8S)-2-(7-(8-Ethynyl-7-fluoronaphthalen-1-yl)-8-fluoro-2-(((S,Z)-2-(fluoromethylene)tetrahydro-1H-pyrrolizin-7a(5H)-yl)methoxy)pyrido[4,3-d]pyrimidin-4-yl)-8-fluoro-5-oxa-2-azabicyclo[5.1.0]octane] yielded an IC50 of under 50 nM.
`[2H]C([2H])(Oc1nc(N2CCOC[C@@H]3[C@@H](F)[C@@H]32)c2cc(Cl)c(-c3cc(N)c(F)c(C)c3C(F)(F)F)c(F)c2n1)[C@@]12CCCN1C[C@H](F)C2` [Example 191, 5-(6-chloro-8-fluoro-4-((1R,7R,8R)-8-fluoro-5-oxa-2-azabicyclo[5.1.0]octan-2-yl)-2-(((2R,7aS)-2-fluorotetrahydro-1H-pyrrolizin-7a(5H)-yl)methoxy-d2)quinazolin-7-yl)-2-fluoro-3-methyl-4-(trifluoromethyl)aniline] showed an IC50 of 500 to 10000 nM.

Same assay, conditions: Homo sapiens, NCI-H441, cellular pERK HTRF, NCI-H441 (KRAS G12V) cells
Work on `[2H]C([2H])(Oc1nc(N2CCOC[C@H]3[C@H](F)[C@H]32)c2cnc(-c3cc(N)cc4ccc(F)c(C#C)c34)c(C3CC3)c2n1)[C@@]12CCCN1C[C@H](F)C2` [Example 452, 4-(8-cyclopropyl-4-((1S,7S,8S)-8-fluoro-5-oxa-2-azabicyclo[5.1.0]octan-2-yl)-2-(((2R,7aS)-2-fluorotetrahydro-1H-pyrrolizin-7a(5H)-yl)methoxy-d2)pyrido[4,3-d]pyrimidin-7-yl)-5-ethynyl-6-fluoronaphthalen-2-amine] yielded an IC50 of 500 to 10000 nM.

Same assay, conditions: Homo sapiens, NCI-H441, pERK HTRF, NCI-H441 cells (KRAS G12V)
`[2H]C([2H])(Oc1nc(N2CCOC[C@@H]3C[C@@H]32)c2cnc(-c3cc(N)cc4cc(F)c(F)c(C#C)c34)c(F)c2n1)[C@@]12CCCN1C[C@H](F)C2` [Example 61, 4-(4-((1S,7R)-5-Oxa-2-azabicyclo[5.1.0]octan-2-yl)-8-fluoro-2-(((2R,7aS)-2-fluorotetrahydro-1H-pyrrolizin-7a(5H)-yl)methoxy-d2)pyrido[4,3-d]pyrimidin-7-yl)-5-ethynyl-6,7-difluoronaphthalen-2-amine] was tested, and the IC50 was 500 to 10000 nM.

Same assay, conditions: cellular pERK (Thr202/Tyr204) HTRF, NCI-H441 cells
`[2H]C([2H])(Oc1nc(N2CCOC[C@H]3[C@H](Cl)[C@H]32)c2cc(C(F)(F)F)c(-c3ccc(F)c4sc(N)c(C#N)c34)c(F)c2n1)[C@@]12CCCN1C[C@H](F)C2` (atropisomer, axis not shown; (aS)) [Example 420, 2-amino-4-((S)-4-((1S,7S,8S)-8-chloro-5-oxa-2-azabicyclo[5.1.0]octan-2-yl)-8-fluoro-2-(((2R,7aS)-2-fluorotetrahydro-1H-pyrrolizin-7a(5H)-yl)methoxy-d2)-6-(trifluoromethyl)quinazolin-7-yl)-7-fluorobenzo[b]thiophene-3-carbonitrile] showed an IC50 of under 50 nM.
Work on `[2H]C([2H])(Oc1nc(N2CCOC[C@H]3[C@H](F)[C@H]32)c2cc(F)c(-c3cc(N)cc4ccc(F)c(C#C)c34)c(F)c2n1)[C@@]12CCCN1C[C@H](F)C2` [Example 355, 4-(6,8-difluoro-4-((1S,7S,8S)-8-fluoro-5-oxa-2-azabicyclo[5.1.0]octan-2-yl)-2-(((2R,7aS)-2-fluorotetrahydro-1H-pyrrolizin-7a(5H)-yl)methoxy-d2)quinazolin-7-yl)-5-ethynyl-6-fluoronaphthalen-2-amine] yielded an IC50 of under 50 nM.
